Calls of active or inactive are those of the source. No cut-off for these calls is given here.
Tests used:
[1] = biological target: Amyloid-beta precursor protein (Homo sapiens) (UniProt P05067); test: Inhibition of amyloid beta (1-42) fibril aggregation (unknown origin) at 100 uM after 20 hrs by transmission electron microscopic analysis
[2] = Apparent permeability from apical to basolateral side in mouse bEND.3 /rat C6 co-culture cell model after 1 hr by Transwell assay; type: ADME
Mus musculus [3] = test: Cognitive enhancing effect in amyloid beta (1-42) infused ICR mouse assessed as increase in alternation behavior at 30 mg/kg/day, ip administered 1 day prior to amyloid beta (1-42) infusion and continued for 6 days measured on day 6 by Y-maze test (reference value: 64.1%); type: functional; conditions: route intraperitoneal
hERG (KCNH2) = hERG (KCNH2) (Homo sapiens, UniProt Q12809); test: Inhibition of human ERG in HEK293 cells at 10 uM by patch clamp assay relative to control; type: cell-based; conditions: HEK293 cells expressing human ERG
[4] = Acute toxicity in po dosed Sprague-Dawley rat assessed as mortality after 14 days; type: organism-based; conditions: in vivo
Rattus norvegicus [5] = test: Toxicity in Sprague-Dawley rat assessed as change in body weight at 2000 mg/kg, po after 14 days (reference value: 199.1 +/- 4.8 g); type: organism-based; parameters: dose 2000 mg/kg, route oral; conditions: in vivo, 336 h
Rattus norvegicus [6] = test: Toxicity in Sprague-Dawley rat assessed as change in body weight at 2000 mg/kg, po after 10 days (reference value: 175.9 +/- 5.1 g); type: organism-based; parameters: dose 2000 mg/kg, route oral; conditions: in vivo, 240 h
Rattus norvegicus [7] = test: Toxicity in Sprague-Dawley rat assessed as change in body weight at 2000 mg/kg, po after 5 days (reference value: 148.4 +/- 3.2 g); type: organism-based; parameters: dose 2000 mg/kg, route oral; conditions: in vivo, 120 h
Rattus norvegicus [8] = test: Toxicity in Sprague-Dawley rat assessed as change in body weight at 2000 mg/kg, po after 1 day (reference value: 130.6 +/- 4.6 g); type: organism-based; parameters: dose 2000 mg/kg, route oral; conditions: in vivo, 24 h
Rattus norvegicus [9] = test: Toxicity in Sprague-Dawley rat assessed as change in body weight at 1000 mg/kg, po after 14 days (reference value: 199.1 +/- 4.8 g); type: organism-based; parameters: dose 1000 mg/kg, route oral; conditions: in vivo, 336 h
Rattus norvegicus [10] = test: Toxicity in Sprague-Dawley rat assessed as change in body weight at 1000 mg/kg, po after 10 days (reference value: 175.9 +/- 5.1 g); type: organism-based; parameters: dose 1000 mg/kg, route oral; conditions: in vivo, 240 h
Rattus norvegicus [11] = test: Toxicity in Sprague-Dawley rat assessed as change in body weight at 1000 mg/kg, po after 1 day (reference value: 130.6 +/- 4.6 g); type: organism-based; parameters: dose 1000 mg/kg, route oral; conditions: in vivo, 24 h
Rattus norvegicus [12] = test: Toxicity in Sprague-Dawley rat assessed as change in body weight at 1000 mg/kg, po after 5 days (reference value: 148.4 +/- 3.2 g); type: organism-based; parameters: dose 1000 mg/kg, route oral; conditions: in vivo, 120 h
Rattus norvegicus [13] = test: Toxicity in Sprague-Dawley rat assessed as change in body weight at 500 mg/kg, po after 14 days (reference value: 199.1 +/- 4.8 g); type: organism-based; parameters: dose 500 mg/kg, route oral; conditions: in vivo, 336 h
Rattus norvegicus [14] = test: Toxicity in Sprague-Dawley rat assessed as change in body weight at 500 mg/kg, po after 10 days (reference value: 175.9 +/- 5.1 g); type: organism-based; parameters: dose 500 mg/kg, route oral; conditions: in vivo, 240 h
Rattus norvegicus [15] = test: Toxicity in Sprague-Dawley rat assessed as change in body weight at 500 mg/kg, po after 5 days (reference value: 148.4 +/- 3.2 g); type: organism-based; parameters: dose 500 mg/kg, route oral; conditions: in vivo, 120 h
Rattus norvegicus [16] = test: Toxicity in Sprague-Dawley rat assessed as change in body weight at 500 mg/kg, po after 1 day (reference value: 130.6 +/- 4.6 g); type: organism-based; parameters: dose 500 mg/kg, route oral; conditions: in vivo, 24 h
[17] = Oral bioavailability in ICR mouse at 20 mg/kg; type: ADME, organism-based; conditions: in vivo
[18] = Half life in ICR mouse plasma at 10 mg/kg, iv; type: ADME, organism-based; parameters: dose 10 mg/kg, route intravenous
[19] = Half life in ICR mouse brain at 10 mg/kg, iv; type: ADME, organism-based; parameters: dose 10 mg/kg, route intravenous
[20] = Half life in ICR mouse plasma at 20 mg/kg, po; type: ADME, organism-based; parameters: dose 20 mg/kg, route oral
[21] = Half life in ICR mouse brain at 20 mg/kg, po; type: ADME, organism-based; parameters: dose 20 mg/kg, route oral
[22] = Tmax in ICR mouse plasma at 10 mg/kg, iv; type: ADME, organism-based; parameters: dose 10 mg/kg, route intravenous
[23] = Tmax in ICR mouse brain at 10 mg/kg, iv; type: ADME, organism-based; parameters: dose 10 mg/kg, route intravenous
[24] = Tmax in ICR mouse plasma at 20 mg/kg, po; type: ADME, organism-based; parameters: dose 20 mg/kg, route oral
[25] = Tmax in ICR mouse brain at 20 mg/kg, po; type: ADME, organism-based; parameters: dose 20 mg/kg, route oral
[26] = Cmax in ICR mouse brain at 10 mg/kg, iv; type: ADME, organism-based; parameters: dose 10 mg/kg, route intravenous
[27] = Cmax in ICR mouse plasma at 10 mg/kg, iv; type: ADME, organism-based; parameters: dose 10 mg/kg, route intravenous
[28] = Cmax in ICR mouse plasma at 20 mg/kg, po; type: ADME, organism-based; parameters: dose 20 mg/kg, route oral
[29] = Cmax in ICR mouse brain at 20 mg/kg, po; type: ADME, organism-based; parameters: dose 20 mg/kg, route oral
[30] = AUC (0 to 24 hrs) in ICR mouse plasma at 10 mg/kg, iv; type: ADME, organism-based; parameters: time < 24 hr, dose 10 mg/kg, route intravenous
[31] = AUC (0 to 24 hrs) in ICR mouse brain at 10 mg/kg, iv; type: ADME, organism-based; parameters: time < 24 hr, dose 10 mg/kg, route intravenous
[32] = AUC (0 to 24 hrs) in ICR mouse brain at 20 mg/kg, po; type: ADME, organism-based; parameters: time < 24 hr, dose 20 mg/kg, route oral
[33] = AUC (0 to 24 hrs) in ICR mouse plasma at 20 mg/kg, po; type: ADME, organism-based; parameters: time < 24 hr, dose 20 mg/kg, route oral
Mus musculus [34] = test: Ratio of drug level in brain to plasma in ICR mouse at 10 mg/kg, iv […]; conditions: in vivo
Mus musculus [35] = test: Ratio of drug level in brain to plasma in ICR mouse at 20 mg/kg, po […]; conditions: in vivo
Rattus norvegicus [36] = test: Acute toxicity in Sprague-Dawley rat assessed as mortality at 500 to 2000 mg/kg, po after 14 days; type: organism-based; parameters: dose 500-2000 mg/kg, route oral; conditions: in vivo, 336 h

Sequence of hERG (KCNH2) (Q12809 whole entry): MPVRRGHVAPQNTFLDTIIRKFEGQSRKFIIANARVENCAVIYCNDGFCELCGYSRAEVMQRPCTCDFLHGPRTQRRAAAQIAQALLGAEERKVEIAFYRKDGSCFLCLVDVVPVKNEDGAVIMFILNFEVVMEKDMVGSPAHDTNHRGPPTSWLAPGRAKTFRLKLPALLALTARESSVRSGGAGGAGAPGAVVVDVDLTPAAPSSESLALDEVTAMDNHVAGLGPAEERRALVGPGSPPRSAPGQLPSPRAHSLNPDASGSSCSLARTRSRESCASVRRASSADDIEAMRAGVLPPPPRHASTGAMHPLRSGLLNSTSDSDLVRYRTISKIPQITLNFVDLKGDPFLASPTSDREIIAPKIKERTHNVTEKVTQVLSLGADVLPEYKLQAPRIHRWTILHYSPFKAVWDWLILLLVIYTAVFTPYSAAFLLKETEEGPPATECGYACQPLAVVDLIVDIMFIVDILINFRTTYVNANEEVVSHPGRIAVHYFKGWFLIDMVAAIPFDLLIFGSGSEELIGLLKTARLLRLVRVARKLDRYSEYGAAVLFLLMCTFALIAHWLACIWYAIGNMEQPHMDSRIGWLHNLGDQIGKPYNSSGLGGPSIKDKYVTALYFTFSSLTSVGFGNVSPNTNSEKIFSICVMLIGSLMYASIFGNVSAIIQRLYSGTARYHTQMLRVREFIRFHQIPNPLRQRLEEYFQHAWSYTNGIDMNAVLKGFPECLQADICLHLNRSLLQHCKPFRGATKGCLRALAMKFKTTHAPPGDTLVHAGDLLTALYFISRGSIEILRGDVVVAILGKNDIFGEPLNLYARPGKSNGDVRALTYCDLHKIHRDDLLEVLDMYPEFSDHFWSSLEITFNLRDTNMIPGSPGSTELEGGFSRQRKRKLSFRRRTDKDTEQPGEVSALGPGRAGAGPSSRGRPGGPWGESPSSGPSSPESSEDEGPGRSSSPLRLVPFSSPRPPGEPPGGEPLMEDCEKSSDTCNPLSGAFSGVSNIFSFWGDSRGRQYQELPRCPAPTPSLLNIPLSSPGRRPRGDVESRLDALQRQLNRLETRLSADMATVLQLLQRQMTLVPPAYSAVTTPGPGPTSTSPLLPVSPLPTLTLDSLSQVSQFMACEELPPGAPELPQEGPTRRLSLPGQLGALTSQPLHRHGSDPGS
Sequence of Amyloid-beta precursor protein (Homo sapiens) (P05067 whole entry): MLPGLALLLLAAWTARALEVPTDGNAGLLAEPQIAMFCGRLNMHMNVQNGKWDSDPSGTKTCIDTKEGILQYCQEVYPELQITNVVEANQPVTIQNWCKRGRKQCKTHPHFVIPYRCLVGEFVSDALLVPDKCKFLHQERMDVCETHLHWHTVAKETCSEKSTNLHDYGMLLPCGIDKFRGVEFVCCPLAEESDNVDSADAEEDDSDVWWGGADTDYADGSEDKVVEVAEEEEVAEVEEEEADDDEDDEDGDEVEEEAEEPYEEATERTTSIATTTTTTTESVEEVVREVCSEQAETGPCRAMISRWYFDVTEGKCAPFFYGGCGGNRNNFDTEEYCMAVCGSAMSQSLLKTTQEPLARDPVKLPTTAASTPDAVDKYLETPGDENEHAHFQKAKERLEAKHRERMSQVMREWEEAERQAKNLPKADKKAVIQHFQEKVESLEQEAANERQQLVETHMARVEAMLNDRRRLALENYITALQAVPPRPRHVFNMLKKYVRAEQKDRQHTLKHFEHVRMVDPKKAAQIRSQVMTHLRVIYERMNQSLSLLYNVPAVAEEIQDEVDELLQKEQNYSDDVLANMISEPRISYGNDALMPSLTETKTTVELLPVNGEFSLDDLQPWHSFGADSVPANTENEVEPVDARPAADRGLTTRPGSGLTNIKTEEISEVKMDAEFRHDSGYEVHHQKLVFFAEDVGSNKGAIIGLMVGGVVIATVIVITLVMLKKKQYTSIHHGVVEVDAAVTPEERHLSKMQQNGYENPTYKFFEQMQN

SMILES	inhibition [1]	Papp A→B at 1 h [2]	Activity (Mus musculus [3])	inhibition at 10 µM (hERG (KCNH2))	Activity (Rattus norvegicus [5])	Activity (Rattus norvegicus [6])	Activity (Rattus norvegicus [7])	Activity (Rattus norvegicus [8])	Activity (Rattus norvegicus [9])	Activity (Rattus norvegicus [10])	Activity (Rattus norvegicus [11])	Activity (Rattus norvegicus [12])	Activity (Rattus norvegicus [13])	Activity (Rattus norvegicus [14])	Activity (Rattus norvegicus [15])	Activity (Rattus norvegicus [16])	Activity (Rattus norvegicus [36])	further results
COc1cc(/C=C/C(=O)CC(=O)/C=C/c2ccc(O)c(OC)c2)ccc1O	Active	–	–	–	–	–	–	–	–	–	–	–	–	–	–	–	–	–
COC(=O)c1ccccc1-c1c2ccc(=N)cc-2oc2cc(N)ccc12.Cl [RHODAMINE123]	–	32 ×10⁻⁶ cm/s	–	–	–	–	–	–	–	–	–	–	–	–	–	–	–	–
COc1cc(/C=C/c2cccc(/C=C/c3ccc(N(C)C)c(OC)c3)c2)ccc1N(C)C	Active	670 ×10⁻⁶ cm/s	70%	14%	174.6 g	157.8 g	128.3 g	132.4 g	182.2 g	164.2 g	132 g	138.9 g	183.9 g	164.1 g	142.6 g	131.5 g	–	LD50 at 336 h [4]: > 2000 mg/kg; bioavailability [17]: 46.2%; half-life [18]: 7.3 h; half-life [19]: 6.04 h; half-life [20]: 9.4 h; half-life [21]: 14.5 h; Tmax [22]: 4.8 min; Tmax [23]: 0.4 h; Tmax [24]: 1 h; Tmax [25]: 4.7 h; Cmax [26]: 1410 ng/mL; Cmax [27]: 13100 ng/mL; Cmax [28]: 3490 ng/mL; Cmax [29]: 395 ng/mL; AUC(0-t) at 24 h [30]: 31600 ng·h/mL; AUC(0-t) at 24 h [31]: 8100 ng·h/mL; AUC(0-t) at 24 h [32]: 4530 ng·h/mL; AUC(0-t) at 24 h [33]: 29200 ng·h/mL; Drug uptake (Mus musculus [34]): 26%; Drug uptake (Mus musculus [35]): 15%
CNc1ccc(/C=C/c2cccc(/C=C/c3ccc(NC)c(OC)c3)c2)cc1OC	–	–	–	–	–	–	–	–	–	–	–	–	–	–	–	–	Non-toxic	–
NCCCS(=O)(=O)O [TRAMIPROSATE]	–	–	67.3%	18%	194.3 g	171.5 g	147.2 g	131.4 g	195.4 g	174.7 g	131.1 g	149.6 g	188 g	167.2 g	145.3 g	130.7 g	Non-toxic	–
